The values that follow come from patent publication US20240402196A1 (Exact Sciences Corporation, priority 2018, published 2024).

In one experiment the target is T1, Hb (Homo sapiens, UniProt P68871+P69905).
T1 construct: To assess the stability of hemoglobin in stool samples, samples were exposed to simulated shipping stress conditions; from tissue; host or cells: stool samples
Description: Appendix B additive screen, % Hb Recovery.

The target in the next experiment is T2, hemoglobin (Hb) (Homo sapiens, UniProt P68871+P69905).
T2 construct: To assess the stability of hemoglobin in stool samples, samples were exposed to simulated shipping stress conditions; from tissue; host or cells: stool samples
T2 sequence (P69905 2-142 limits assumed): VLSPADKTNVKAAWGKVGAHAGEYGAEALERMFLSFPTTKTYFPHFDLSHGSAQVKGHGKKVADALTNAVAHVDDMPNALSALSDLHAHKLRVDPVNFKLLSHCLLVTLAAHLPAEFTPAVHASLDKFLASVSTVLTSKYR
T2 sequence (P68871 2-147 limits assumed): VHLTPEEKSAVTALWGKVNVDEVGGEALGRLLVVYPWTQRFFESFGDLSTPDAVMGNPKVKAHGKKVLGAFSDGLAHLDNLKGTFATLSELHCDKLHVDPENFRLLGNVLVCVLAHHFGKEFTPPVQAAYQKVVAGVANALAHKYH
The experiment can be described thus: Appendix B: additives in Hb Collection Buffer, % Hb Recovery.

In experiment [1] the target is T3, hemoglobin in stool samples (Homo sapiens, UniProt P68871+P69905). The experiment can be described thus: 3-Day shipping simulation, hemoglobin % recovery by ELISA.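 As to all read-outs here: stool samples put through shipping stress in a thermal cycler, hemoglobin quantified by ELISA before and after, stability given as post-stress % of the pre-stress level.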 The note with it: for Notes (Hb stability vs Hb Collection Buffer): additive concentrations as in the 8th table. On the set-up: from tissue; host or cells: stool samples.
T3 sequence (P69905 2-142 limits assumed): as the sequence (P69905 2-142 limits assumed) above
T3 sequence (P68871 2-147 limits assumed): as the sequence (P68871 2-147 limits assumed) above
Experiment [2] deals with T3, hemoglobin in stool samples. Description: Accelerated shipping simulation (35C 16 hour challenge), hemoglobin % recovery by ELISA.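 Also: stool hemoglobin measured by ELISA before and after thermal-cycler shipping stress, stability given as percent of pre-stress hemoglobin recovered afterwards.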 On the set-up: from tissue; host or cells: stool samples.

T1 sequence (P69905 2-142 limits assumed): as the sequence (P69905 2-142 limits assumed) above
T1 sequence (P68871 2-147 limits assumed): as the sequence (P68871 2-147 limits assumed) above

With `CCn1cc[n+](C)c1.[Cl-]` [1-ethyl-3-methylimidazolium chloride], the Results entry at Hb is on record as “No Improvement”.
Same read-out and setting: under `CCCCCCn1cc[n+](C)c1.[Cl-]` [1-hexyl-3-methylimidazolium chloride] stands “No Improvement”; under `Cl.Cn1sccc1=O` [2-methyl-4-isothiazolin-3-one-hydrochloride], “No Improvement”.
Still for that read-out and setting: for `O=[N+]([O-])C1(Br)COCOC1` [5-bromo-5-nitro-1,3-dioxane] the value was “No Improvement”.
Same read-out and setting: for `CC(=O)O.N` [Ammonium Acetate] the value was “No Improvement”.
As to `Cl.N` [Ammonium Chloride], the Results result at Hb is listed as “No Improvement”.
Same read-out and setting: for `N.N.O=C(O)C(=O)O` [Ammonium Oxalate] the value was “No Improvement”.
Same read-out and setting: under `N.N.O=S(=O)(O)O` [Ammonium Sulfate] stands “No Improvement”; under `[Ca+2].[Cl-].[Cl-]` [Calcium Chloride (anhydrous)], “Calcium cation shows”; under `O.O.[Ca+2].[Cl-].[Cl-]` [Calcium Chloride (dihydrate)], “Calcium cation shows”.
Turning to `[Ca+2].[Cl-].[Cl-]` [Calcium Chloride, pH 6.5], the Results result on hemoglobin (Hb) (Additive Concentration 10 mM) was “No Improvement”.
As to `OCCO` [Ethylene Glycol], on Hb, the Results result is reported as “No Improvement”.
On to `O=C(O)[C@H]1OC(O)[C@H](O)[C@@H](O)[C@H]1O` (stereo partly drawn) [Galaturonic Acid], for which the Results result on hemoglobin (Hb) (Additive Concentration 0.01%) is recorded as “No Improvement”; on hemoglobin (Hb) (Additive Concentration 0.01% + 10 mM), “No improvement”; on hemoglobin (Hb) (Additive Concentration 0.10%), “No Improvement”; at hemoglobin (Hb) (Additive Concentration 0.1% + 10 mM) it was “No improvement”; on hemoglobin (Hb) (Additive Concentration 1%), “No Improvement”; at hemoglobin (Hb) (Additive Concentration 1% + 10 mM) it was “No improvement”.
With `NCC(=O)O` [Glycine], the Results result on Hb is on record as “No Improvement”.
Regarding `C=CC1=C(C)c2cc3[n-]c(cc4nc(cc5[n-]c(cc1n2)c(C)c5C=C)C(C)=C4CCC(=O)O)c(CCC(=O)O)c3C.[Cl-].[Fe+3]` [Hemin, pH 6.5], the Results result on hemoglobin (Hb) (Additive Concentration 0.00%) and at hemoglobin (Hb) (additive concentration 0.0003%) was “Improvement in % Hb” throughout.
For the compound `[Cl][Fe][Cl]` [Iron (2) Chloride], the Results entry on Hb is reported as “No Improvement”.
On the same count and under the same terms, for `[Cl-].[Li+]` [Lithium Chloride] the value was “No Improvement”.
As for `[Cl-].[Cl-].[Mg+2]` [Magnesium Chloride], the Results entry (at Hb; in experiment [1] (additive concentration 5 mM); in experiment [1] (additive concentration 10 mM); in experiment [1] (additive concentration 20 mM); in experiment [1] (additive concentration 30 mM); in experiment [1] (additive concentration 40 mM)) was “Magnesium Cation shows” throughout. The Results entry in experiment [1] (additive concentration 50 mM) is on record as “Magnesium Cation shows”.
As to `CC(=O)[O-].[K+]` [Potassium Acetate], the Results result at Hb is “No Improvement”.
Regarding `[Cl-].[K+]` [Potassium Chloride], the Results result at Hb is “No Improvement”.
As for `C=CC1=C(C)c2cc3[n-]c(cc4nc(cc5[n-]c(cc1n2)c(C)c5C=C)C(C)=C4CCC(=O)O)c(CCC(=O)O)c3C.[Cu+2]` [Protoporphyrin IX Copper], the Results entry on hemoglobin (Hb) (Additive Concentration 0.1 uM), at hemoglobin (Hb) (Additive Concentration 1 uM) and at hemoglobin (Hb) (additive concentration 10 uM) was “No Improvement” in each case.
Regarding `C=CC1=C(C)c2cc3[n-]c(cc4nc(cc5[n-]c(cc1n2)c(C)c5CCC(=O)O)C(CCC(=O)O)=C4C)c(C)c3C=C.[Mg+2]` [Protoporphyrin IX Magnesium], the Results entry on hemoglobin (Hb) (Additive Concentration 0.1 uM), on hemoglobin (Hb) (Additive Concentration 1 uM), at hemoglobin (Hb) (additive concentration 10 uM), on hemoglobin (Hb) (additive concentration 25 uM) and at hemoglobin (Hb) (additive concentration 50 uM) was “No Improvement” in each case.
Consider `C=CC1=C(C)c2cc3[n-]c(cc4nc(cc5[n-]c(cc1n2)c(C)c5C=C)C(C)=C4CCC(=O)O)c(CCC(=O)O)c3C.[Cl-].[Mn+3]` [Protoporphyrin IX Mangansese], for which the Results result at hemoglobin (Hb) (Additive Concentration 0.05 uM), at hemoglobin (Hb) (Additive Concentration 0.1 uM), on hemoglobin (Hb) (Additive Concentration 1 uM) and on hemoglobin (Hb) (additive concentration 10 uM) was “No Improvement” throughout.
In the case of `C=CC1=C(C)c2cc3[n-]c(cc4nc(cc5[n-]c(cc1n2)c(C)c5C=C)C(C)=C4CCC(=O)O)c(CCC(=O)O)c3C.[Cl-].[Cl-].[Sn+4]` [Protoporphyrin IX Tin], the Results entry at hemoglobin (Hb) (Additive Concentration 0.1 uM), on hemoglobin (Hb) (Additive Concentration 1 uM) and at hemoglobin (Hb) (additive concentration 10 uM) was “No Improvement” each time.
As for `C=CC1=C(C)c2cc3[n-]c(cc4nc(cc5[n-]c(cc1n2)c(C)c5C=C)C(C)=C4CCC(=O)O)c(CCC(=O)O)c3C.[Zn+2]` [Protoprophyrin IX Zn], the Results result at Hb is “No Improvement”.
With `O=c1c(O)c(-c2ccc(O)c(O)c2)oc2cc(O)cc(O)c12` [Quercetin], the Results result in experiment [1] (Additive Concentration 150 uM) is on record as “No improvement”; in experiment [1] (Additive Concentration 300 uM), “No improvement”; in experiment [1] (Additive Concentration 600 uM), “No improvement”; in experiment [2] (additive concentration 0.6 uM) it was “No Improvement”; in experiment [2] (additive concentration 6 uM) it was “No Improvement”; in experiment [2] (additive concentration 60 uM), “No Improvement”.
For the compound `CC(=O)[O-].[Na+]` [Sodium Acetate], the Results result at Hb is given as “No Improvement”.
`O=C([O-])c1ccccc1.[Na+]` [Sodium Benzoate]: the Results entry on Hb is given as “No Improvement”; in experiment [1] (Additive Concentration 0.03%) it was “No improvement”; in experiment [1] (Additive Concentration 0.04%), “No improvement”; in experiment [1] (Additive Concentration 0.05%), “No improvement”; in experiment [1] (Additive Concentration 0.06%), “No improvement”; in experiment [1] (Additive Concentration 0.10%), “No improvement”. Further, the Results result in experiment [1] (Additive Concentration 0.50%) and in experiment [1] (Additive Concentration 1%) was “No improvement” throughout.
As for `O=C([O-])O.[Na+]` [Sodium Bicarbonate], the Results entry (on Hb; in experiment [2] (additive concentration 0.0000895 mM); in experiment [2] (additive concentration 0.000895 mM); in experiment [2] (additive concentration 0.00895 mM); in experiment [2] (additive concentration 0.0895 mM); in experiment [2] (additive concentration 0.895 mM)) was “No Improvement” each time. In addition, in experiment [2] (additive concentration 8.95 mM), the Results result is recorded as “No Improvement”.
Regarding `O=S([O-])O.[Na+]` [Sodium Bisulfite], the Results result at Hb is reported as “No Improvement”.
The same measure, in the same setting: for `[Br-].[Na+]` [Sodium Bromide] the value was “No Improvement”; for `O=C([O-])[O-].[Na+].[Na+]` [Sodium Carbonate], “No Improvement”; for `[O-][Cl+3]([O-])([O-])O` [Sodium Perchlorate], “No Improvement”.
The same measure, in the same setting: under `O=P(O)(O)O` [Sodium Phosphate] stands “No Improvement”.
Turning to `OC[C@H]1O[C@@](CO)(O[C@H]2O[C@H](CO)[C@@H](O)[C@H](O)[C@H]2O)[C@@H](O)[C@@H]1O` [Sucrose], in experiment [1], the “Notes (Hb stability vs Hb Collection Buffer)” value is “Improved Hb”. The Results entry in experiment [2] (additive concentration […]) is recorded as “Improvement”.
For `OC[C@H]1O[C@H](O[C@H]2O[C@H](CO)[C@@H](O)[C@H](O)[C@H]2O)[C@H](O)[C@@H](O)[C@@H]1O` [Trehalose], the “Notes (Hb stability vs Hb Collection Buffer)” value in experiment [1] is given as “Improved Hb”. The Results result in experiment [2] (additive concentration 0.0174 mM) is on record as “No Improvement”; in experiment [2] (additive concentration 0.174 mM), “No Improvement”; in experiment [2] (additive concentration 1.74 mM) it was “No Improvement”; in experiment [2] (additive concentration 10 mM), “No Improvement”; in experiment [2] (additive concentration 16.76 mM) it was “No Improvement”; in experiment [2] (additive concentration 0.3M), “Improvement”.
Consider `C[N+](C)(C)[O-]` [Trimethylamine N-oxide (TMANO)], for which the Results entry is listed as “No Improvement” at Hb; “Slight Improvement” in experiment [1] (additive concentration 1.1M); “Slight Improvement” in experiment [1] (additive concentration 2.15M); “No Improvement” in experiment [1] (additive concentration 3M); “No Improvement” in experiment [1] (additive concentration 3.5M); “No Improvement” in experiment [1] (additive concentration 4M). The Results entry in experiment [2] (additive concentration 500 uM), in experiment [2] (additive concentration 5 mM), in experiment [2] (additive concentration 50 mM) and in experiment [2] (additive concentration 87 mM) was “No Improvement” throughout.
Turning to BSA, pH 6.5, the Results result in the experiment with hemoglobin (Hb) (Additive Concentration 0%), with hemoglobin (Hb) (Additive Concentration 0.50%), in the experiment with hemoglobin (Hb) (Additive Concentration 1%), in the experiment with hemoglobin (Hb) (Additive Concentration 5%) and with hemoglobin (Hb) (Additive Concentration 10%) was “No Improvement” throughout.
On to Calcium Gluconate, for which the Results result on Hb was “No Improvement”.
Still for that read-out and setting: under Sodium hydroxylmethyl glycinate stands “No Improvement”.
On the same count and under the same terms, under phosphatidylcholine stands “No Improvement”.
